Test results taken from patent US11603355B2, “Charged ion channel blockers and methods for use” (Nocion Therapeutics, Inc., priority 2019, dated 2023).
pIC50: −log10 of the molar value.

Tests used:
[1] = molecular target: T1, NaV1.7 (Homo sapiens, UniProt Q15858); assay: Automated patch clamp (Qube 384), external block of NaV1.7; type: cell-based; conditions: IC50, compound in external solution, HEK293 cells, read-out: Nav1.7 Extracellular Inhibition
T1 construct: expressed in transfected cells; host or cells: HEK293 (tetracycline-inducible)
Description: (§1) NaV1.7 was expressed in HEK293 cells upon induction with tetracycline. Cells were cultured in DMEM containing 10% dialyzed Fetal Bovine Serum (VWR, Radnor, Pa.), 1% Glutamax (VWR, Radnor, Pa.), 1% Penicillin-Streptomycin (VWR, Radnor, Pa.), 100 mg/L Hygromycin (Thermo Fisher Scientific, Waltham, Mass. and 5 mg/L Blasticidin (Alfa Aesar, Haverhill, Mass.). Cells were grown and maintained at 37° C. in a humidified environment containing 10% CO2 in air. Cells were detached from the culture flask for passage and harvested using 0.05% Trypsin-EDTA (Thermo Fisher Scientific, Waltham, Mass.). To induce NaV1.7, cells were induced with tetracycline (0.1-1 μg/mL, IBI Scientific, Peosta, Iowa) the day before recording.
(§2) Before experiments, cells were washed with DPBS (VWR, Radnor, Pa.), digested with Detachin (VWR Radnor, Pa.) and then triturated 10 times in CHO Serum-Free Media (VWR Radnor, Pa.) to resuspend the cells and to break apart cell aggregates. Cells were counted and the final concentration was set at 2-5 million cells per mL.
(§3) The intracellular solution contained the following: 140 mM CsF, 1 mM/5 mM EGTA/CsOH, 10 mM HEPES, 10 mM NaCl, adjusted to pH 7.3 with CsOH, and osmolality to 320 with OSM solution. The external solution contained the following: 145 mM NaCl, 4 mM KCl, 1 mM MgCl2, 2 mM CaCl2), 10 mM HEPES, 10 mM Glucose, adjusted to pH 7.4 with CsOH and osmolality to 305 with OSM solution. The OSM solution was a normal Ringer solution containing (in mM) NaCl 155, HEPES 10, sucrose, KCl 3.5, CaCl2) 1.5, MgCl2 1 adjusted to pH 7.4 with NaOH. All chemicals are from Sigma-Aldrich, St. Louis, Mo. In order to test the degree of internal block by test compounds, the compounds were dissolved in internal solution at the indicated test concentration. […] In order to test the degree of external block by test compounds the compounds were dissolved in external solution at the indicated test concentration.
(§4) Automated Patch Clamps were performed on Qube 384 (Sophion Bioscience, Woburn Mass.) with multihole Qchips at a temperature setting of 22 degrees. The whole cells configuration was formed with default Qube seal and break-in parameter. The membrane potential was held at −100 mV before the voltage protocol began. Two voltage protocols were followed.
(§5) Step 1: Cells were held at −100 mV with a depolarized pulse to −20 mV for 10 ms, the interval was set at 5 s. Currents were corrected by default leak subtraction from every pulse. The duration was set at 5 mins.
(§6) Step 2: Cells were held at −100 mV with a depolarized pulse to −20 mV for 10 ms. The frequency was 5 Hz. Currents were corrected by leak subtraction calculated before step 2. The duration was set at 4 mins.
After Step 2, the external solution was changed with solutions containing test compounds. Qchips were held at −100 mV without pulsing. The total solution switching time was 8 minutes. After the external solution exchange, cells were recorded using the same procedure as step 2 for 10 minutes.
Data analysis was performed by Sophion Analyzer. Data were corrected with control cells (Non-Drug). The IC50 data were plotted with DR-plots/Hill function (a dose-response plot with a Hill fit). Representative examples of the invention were tested for extracellular inhibition of NaV 1.7 in the automated patch clamp assay. Activity Range is reported as IC50: “++++” ([…], “+++” (1-3 μM), “++” ([…]) or “+” (>10 μM). The results are presented below.

[2] = molecular target: T1, NaV1.7; assay: Automated patch clamp (Qube 384), internal block of NaV1.7; type: cell-based; conditions: IC50, compound in internal solution, HEK293 cells, read-out: Nav1.7 Intracellular Inhibition
Description: as §1, §2, §3, §4, §5, §6
After Step 2, the Qchip was removed from the recording chamber. The internal solution was changed with solutions containing test compounds. Qchips were held at −100 mV without pulsing after being replaced in the recording chamber. The total solution switching time was 8 minutes. After the internal solution exchange, Cells were recorded and step 2 for repeated for 10 minutes.
Data analysis was performed by Sophion Analyzer. Cells were filtered with minimum 50 MOhm seal resistance and minimum 5 nA starting current. The rundown of the currents was corrected with control cells (Non-Drug). The remaining was calculated by averaging last 3 points in the end of experiments. The base line was calculated as the average of last 3 points of Step 2.
IC50 curves were plotted with DR-plots/Hill function (a dose-response plot with a Hill fit).
Representative examples of the invention were tested for intracellular inhibition of NaV 1.7 in the automated patch clamp assay. Activity Range is reported as IC50: “++++” (<0.3 μM), “+++” (0.3-1 μM), “++” (1-3 μM) or “+” (3-10 μM).

[3] = PAMPA membrane permeability assay; type: in vitro ADME; conditions: permeability coefficient, pH 7.4 buffer, GIT lipid, 4 hours incubation
Description: The PAMPA assay (pION, Inc., Woburn Mass.) was used to determine the ability of compounds of the invention to cross an artificial lipid membrane by passive diffusion. Test compounds were dissolved in DMSO (10 mM) and diluted 200-fold in buffer (pION Inc., pH 7.4) to provide 50 uM stock solutions. Buffer (150 μL) was added to a UV blank plate and stock solutions (150 μL) were transferred to a UV reference plate. The blank and reference spectrum were read using a spectrophotometer. Stock solutions (200 μL) were added to the donor plate of the PAMPA sandwich plate and an accept plate painted with GIT lipid (pION Inc, 5) was placed on top. Buffer (200 μL) was added to the acceptor plate and the PAMPA sandwich plate was incubated for 4 hours. Aliquots (150 μL) from the acceptor plate were added to a UV plate and read as acceptor spectrum. Aliquots (150 μL) of the donor solutions were added to a UV analysis plate and read as donor spectrum. The permeability coefficient of test compounds was calculated using PAMPA Explorer™ software (version 3.5.0.4) based on the AUC of the reference plate, the donor plate, and the acceptor plate.
The PAMPA permeability results (10^−6 cm/s) of representative compounds are reported as “+” (<0.1 10^−6 cm/s), “++” (0.1-2.0 10^−6 cm/s), “+++” (2.0-10.010^−6 cm/s) or “++++” (>10.0 10^−6 cm/s).

T1 sequence (Q15858 whole entry): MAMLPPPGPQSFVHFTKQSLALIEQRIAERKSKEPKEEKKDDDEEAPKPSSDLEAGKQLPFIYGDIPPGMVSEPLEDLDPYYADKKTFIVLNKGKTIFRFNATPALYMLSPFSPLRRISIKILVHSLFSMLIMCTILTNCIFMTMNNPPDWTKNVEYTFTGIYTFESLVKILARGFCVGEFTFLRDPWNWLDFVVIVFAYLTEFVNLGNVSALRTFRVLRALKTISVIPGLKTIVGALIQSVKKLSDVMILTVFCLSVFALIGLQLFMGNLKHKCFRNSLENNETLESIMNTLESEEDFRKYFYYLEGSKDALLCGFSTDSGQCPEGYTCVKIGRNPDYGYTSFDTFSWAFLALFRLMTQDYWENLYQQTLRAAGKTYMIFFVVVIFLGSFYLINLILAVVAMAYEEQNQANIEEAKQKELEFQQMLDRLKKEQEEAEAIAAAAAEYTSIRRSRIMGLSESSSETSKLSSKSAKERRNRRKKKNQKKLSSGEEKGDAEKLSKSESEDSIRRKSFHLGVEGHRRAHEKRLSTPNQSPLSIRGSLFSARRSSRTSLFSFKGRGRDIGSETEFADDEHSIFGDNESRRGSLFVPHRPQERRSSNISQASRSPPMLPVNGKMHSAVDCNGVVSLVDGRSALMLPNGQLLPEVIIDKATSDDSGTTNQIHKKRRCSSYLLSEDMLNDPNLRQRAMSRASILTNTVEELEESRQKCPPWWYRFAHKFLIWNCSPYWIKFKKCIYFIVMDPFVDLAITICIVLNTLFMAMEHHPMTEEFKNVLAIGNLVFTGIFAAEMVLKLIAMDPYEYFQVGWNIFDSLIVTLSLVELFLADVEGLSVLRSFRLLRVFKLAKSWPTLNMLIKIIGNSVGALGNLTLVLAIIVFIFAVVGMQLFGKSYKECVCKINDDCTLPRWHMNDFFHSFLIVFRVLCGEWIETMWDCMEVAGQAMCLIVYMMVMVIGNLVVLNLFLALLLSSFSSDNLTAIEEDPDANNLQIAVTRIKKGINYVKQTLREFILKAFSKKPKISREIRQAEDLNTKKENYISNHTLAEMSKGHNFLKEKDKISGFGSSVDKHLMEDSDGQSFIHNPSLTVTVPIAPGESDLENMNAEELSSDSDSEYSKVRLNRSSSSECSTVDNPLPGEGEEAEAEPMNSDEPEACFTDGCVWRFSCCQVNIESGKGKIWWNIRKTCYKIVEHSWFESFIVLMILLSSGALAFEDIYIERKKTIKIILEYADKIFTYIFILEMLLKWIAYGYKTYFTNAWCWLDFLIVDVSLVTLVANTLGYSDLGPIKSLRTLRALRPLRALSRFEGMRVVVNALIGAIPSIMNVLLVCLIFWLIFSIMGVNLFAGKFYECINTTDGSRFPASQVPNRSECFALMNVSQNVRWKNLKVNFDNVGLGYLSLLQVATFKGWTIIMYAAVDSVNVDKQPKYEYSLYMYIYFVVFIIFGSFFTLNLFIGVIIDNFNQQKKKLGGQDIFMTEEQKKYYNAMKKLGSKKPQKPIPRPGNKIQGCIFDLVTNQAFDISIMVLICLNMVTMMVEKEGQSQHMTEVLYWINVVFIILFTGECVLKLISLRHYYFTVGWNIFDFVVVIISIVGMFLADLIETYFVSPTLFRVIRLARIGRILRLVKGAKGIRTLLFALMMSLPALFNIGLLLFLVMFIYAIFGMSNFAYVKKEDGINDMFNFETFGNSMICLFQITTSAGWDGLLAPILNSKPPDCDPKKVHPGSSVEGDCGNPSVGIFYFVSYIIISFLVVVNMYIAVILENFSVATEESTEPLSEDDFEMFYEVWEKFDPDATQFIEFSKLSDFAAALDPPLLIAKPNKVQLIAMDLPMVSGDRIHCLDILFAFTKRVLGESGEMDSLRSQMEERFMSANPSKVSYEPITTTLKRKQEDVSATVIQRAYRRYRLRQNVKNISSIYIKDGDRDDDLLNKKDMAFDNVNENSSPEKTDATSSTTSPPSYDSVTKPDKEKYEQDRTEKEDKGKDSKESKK

| Structure (SMILES) | pIC50 [1] | pIC50 [2] | PAMPA (10^−6 cm/s) [3] |
| --- | --- | --- | --- |
| CCC(C(=O)Nc1c(C)cccc1C)[N+]1(Cc2ccccc2)CCCCC1 (stereo not shown) [Compound 6] | < 5.00 | 6.00 to 6.52 |  |
| Cc1cccc(C)c1NC(=O)C[N+]1(Cc2ccccc2)CCCCC1 [Compound 4] | < 5.00 | 6.00 to 6.52 |  |
| Cc1cccc(C(=O)N(C)C)c1NC(=O)C[N+]1(Cc2ccccc2)CCCCCC1.[Br-] [Compound 78A] |  | 5.00 to 5.52 | + (“+” (<0.1 10^−6 cm/s)) |
| Cc1cccc(C)c1OC(=O)C[N+]1(Cc2ccccc2)CCCCCC1 [Compound 83A, 1-benzyl-1-(2-(2,6-dimethylphenoxy)-2-oxoethyl) azepan-1-ium 2,2,2-trifluoroacetate] | 5.52 to 6.00 | 6.00 to 6.52 |  |
| Cc1cccc(O)c1NC(=O)C[N+]1(Cc2ccccc2)CCCCCC1.[Br-] [Compound 79A, 1-benzyl-1-(2-((2-hydroxy-6-methylphenyl)amino)-2-oxoethyl) azepan-1-ium formate] |  | 5.52 to 6.00 | + (“+” (<0.1 10^−6 cm/s)) |
| CC[N+](CC)(CCS(=O)(=O)c1c(C)cccc1C)Cc1ccccc1 [Compound 87A, N-benzyl-2-((2,6-dimethylphenyl)sulfonyl)-N, N-diethylethan-1-aminium bromide] | < 5.00 | 5.00 to 5.52 |  |
| Cc1cccc(C)c1NC(=O)C[N+]1(Cc2ccccc2)CCCC(C(=O)NC2CCCCC2)C1.[Br-] (stereo not shown) [Compound 61A] |  | 5.00 to 5.52 | + (“+” (<0.1 10^−6 cm/s)) |
| Cc1cccc(C)c1S(=O)(=O)CC[N+]1(Cc2ccccc2)CCCCCC1 [Compound 88A, 1-benzyl-1-(2-((2,6-dimethylphenyl)sulfonyl)ethyl) azepan-1-ium bromide] | < 5.00 | 5.00 to 5.52 |  |
| Cc1cccc(C)c1N1CCCC([N+]2(Cc3ccccc3)CCCCC2)C1=O (stereo not shown) [Compound 92A] | < 5.00 | 5.52 to 6.00 |  |

The remaining lines, values ahead:

| pIC50 [1] | pIC50 [2] | PAMPA (10^−6 cm/s) [3] | Structure (SMILES) |
| --- | --- | --- | --- |
| 5.00 to 5.52 | 5.52 to 6.00 | + (“+” (<0.1 10^−6 cm/s)) | Cc1cccc(C)c1NC(=O)C[N+]1(Cc2ccccc2)CCCC(C(=O)NCC(C)C)C1.[Br-] (stereo not shown) [Compound 58A] |
|  | 5.52 to 6.00 | + (“+” (<0.1 10^−6 cm/s)) | Cc1cccc(C)c1NC(=O)C[N+]1(Cc2ccccc2)CCCC(C(=O)OC2CCCC2)C1.[Br-] (stereo not shown) [Compound 50A] |
| < 5.00 | 5.52 to 6.00 |  | Cc1cccc(C)c1NC(=O)C[N+]1(Cc2ccccc2)CCCC1 [Compound 5] |
| 5.00 to 5.52 | 5.00 to 5.52 | + (“+” (<0.1 10^−6 cm/s)) | Cc1cccc(C)c1NC(=O)C[N+]1(Cc2ccccc2)CCCC(C(=O)OC2CCCCC2)C1.[Br-] (stereo not shown) [Compound 51A] |
| 5.00 to 5.52 | 5.52 to 6.00 | + (“+” (<0.1 10^−6 cm/s)) | Cc1cccc(C)c1NC(=O)C[N+]1(Cc2ccccc2)CCCC(C(=O)N2CCCCCC2)C1 (stereo not shown) [Compound 64A] |
| 5.00 to 5.52 | 5.52 to 6.00 | + (“+” (<0.1 10^−6 cm/s)) | Br.CCCCOC(=O)C1CCC[N+](CC(=O)Nc2c(C)cccc2C)(Cc2ccccc2)C1 (stereo not shown) [Compound 49A] |
